# Publication PMC1458349, “Evaluation of high-dose daptomycin for therapy of experimental Staphylococcus aureus foreign body infection” (BMC Infectious Diseases, 2006)
# Values joined by “and” are separate entries in the source; they are usually repeats but may differ in a detail not shown here. Identical values can stand only once. Like-named read-outs stand apart in the source and are kept apart here.
# Key:
# [1] = Pharmacokinetic levels in rat plasma; conditions: 30 mg/kg i.p. twice daily, day 4
# Procedure: (§1) For each time point, the mean (± SEM) daptomycin levels in plasma from four animals was determined.
# [2] = rats, cited from earlier work
# [3] = rat, in vivo, cited from earlier work
# [4] = Pharmacokinetic levels in rat tissue cage fluid (TCF)
# Procedure: as §1
# [5] = Screening of side effects: serum liver, kidney and muscle markers; type: in vivo, rat
# Procedure: To check for potential side effects of the twice-daily 30 mg/kg daptomycin regimen, serum samples of the daptomycin-treated and control rats were collected at day 8 for determination of liver, kidney, and muscle enzyme markers, namely aspartate aminotransferase (ASAT) and alanine aminotransferase (ALAT) activities, serum creatinine, and creatine kinase, respectively, using standard analytical methods.
# [6] = test system: methicillin-susceptible S. aureus (MSSA) strain I20; experiment: microbe, parasite or virus in culture; type: cell-based, Staphylococcus aureus
# Procedure: To screen for the possible carryover effects of each antibiotic during the MBC determinations, 0.1-mL portions were taken from all tubes with no visible growth. These were subcultured, either undiluted or diluted 10-fold in saline, on Mueller-Hinton agar (MHA) for 36 h at 37°C. The MBC was defined as the lowest concentration that killed 99.9% of the original inoculum. Each MIC and MBC determination was performed three times and the modal values are presented. In additional control experiments, MICs and MBCs were performed in CAMHB supplemented with 50% TCF.
# [7] = rats, 30 mg/kg once daily, cited from earlier work
# in vivo [8] = conditions: Wistar, rat, tissue cage fluid (TCF), ip, 30 mg/kg
# Procedure: as §1
# in vivo [9] = conditions: rat, plasma, ip, 30 mg/kg
# Procedure: as §1
# MSSA strain I20 [10] = experiment: Killing kinetic (time-kill) studies; type: cell-based, Staphylococcus aureus; conditions: 8 mg/L in CAMHB; 10^6 CFU exponential-phase; 37°C; one representative of three experiments
# Procedure: 0.1-mL portions containing 10^6 CFU of strain I20 (obtained from exponential-phase cultures) were added to sterile plastic tubes containing 1 mL of either CSMHB containing 8 mg/L of daptomycin, or CAMHB containing 8 mg/L of oxacillin or vancomycin, in a shaking waterbath at 37°C. The number of viable organisms was determined by subculturing 50 μL of 10-fold diluted portions on MHA after 0, 2, 4, 6, and 24 h of incubation. Colonies were enumerated with a laser colony counter (Spiral System) after 48 h of incubation at 37°C. The detection limit was 2 log10 CFU/mL. […] Each killing kinetic experiment was repeated three times and results from one representative experiment are presented.
# [11] = test system: methicillin-susceptible S. aureus (MSSA) strain I20; experiment: MIC, standard tube macrodilution (CLSI); type: cell-based; conditions: Staphylococcus aureus
# Procedure: The methicillin-susceptible S. aureus (MSSA) strain I20 is a previously described clinical isolate from catheter-related sepsis, which is highly virulent in the rat model of chronic S. aureus tissue cage infection. Strain I20 is uniformly susceptible to all antibiotics except penicillin.
# The MICs of oxacillin and vancomycin for strain I20 were determined in cation-adjusted Mueller-Hinton broth (CAMHB) containing 20-25 mg/L Ca^2+ and 10-12.5 mg/L Mg^2+ by the standard tube macrodilution method with an average inoculum of 10^6 CFU/mL as described by the Clinical Laboratory Standards Institute (CLSI). For daptomycin MIC, CAMHB was supplemented with additional calcium to a physiological concentration of 50 mg/L Ca^2+ (CSMHB).
# Each MIC and MBC determination was performed three times and the modal values are presented. In additional control experiments, MICs and MBCs were performed in CAMHB supplemented with 50% TCF.
# MSSA strain I20 [12] = type: in vivo, Staphylococcus aureus; conditions: Wistar rats, i.p. twice daily for 7 days: daptomycin 30 mg/kg, oxacillin 200 mg/kg, vancomycin 50 mg/kg, mean ± SEM, n = 18-19 cages; for average counts in tissue cages at the end of the 7-day therapy: TCF cultured 12 h after last dose; for reduction in bacterial counts in TCF (delta log10 CFU/mL, day 1 to day 8): P < 0.001 vs untreated
# Procedure: All animal studies of the daptomycin no 1-study were performed in 1991. These animal studies followed ethical guidelines of that time period and received legal approval from the Veterinary Office of the State of Geneva. Subcutaneous surgical implantation of four tissue cages per animal was performed as described by using Wistar rats that were anaesthetised with an intraperitoneal (i.p.) injection of a mixture of ketamine (90 mg/kg) and xylazine (5 mg/kg). At 3 weeks post-implantation, TCF was aspirated and checked for sterility. To establish a chronic S. aureus infection, tissue cages were inoculated with 0.1 mL of saline containing 0.2 × 10^6 to 2 × 10^6 CFU of a washed overnight culture of strain I20 in CAMHB. Three weeks later, all tissue cages containing more than 10^5 CFU/mL of TCF were included in the therapeutic protocols.
# Rats infected with strain I20 were randomised to receive (by the i.p. route for 7 days) twice-daily regimens of either daptomycin (30 mg/kg), oxacillin (200 mg/kg), or vancomycin (50 mg/kg), or were left untreated. At 12 h after the last injection of antibiotic, quantitative cultures of 10-fold serially diluted TCF were performed on MHA. To optimise the yield of viable bacteria, TCF were briefly sonicated (60 W, 1 min) to disrupt the biofilm and phagocytic cells before the serial dilutions and plating. Plates were incubated for 24-48 h at 37°C. The detection limit was one colony equivalent to 2 log10 CFU/mL of TCF. The differences in CFU counts between day 1 and day 8 were determined and expressed as delta log10CFU/mL. For each treatment group, results were expressed as means ± standard errors of the means (SEM). Comparison of bacterial counts in the different groups was performed by ANOVA and Newman-Keuls multiple comparisons procedures using Microsoft Excel® 2000 software. Data were considered significant when P was < 0.05 by using two-tailed significance levels.
# [13] = twice-daily oxacillin 200 mg/kg or vancomycin 50 mg/kg
# [14] = Staphylococcus aureus, MSSA, CAMHB, lowest concentration killing 99.9% of inoculum, subculture on MHA 36 h 37°C, modal value of 3, read-out: MBC
smiles,measurement,setting,value
CCCCCCCCCC(=O)N[C@@H](Cc1c[nH]c2ccccc12)C(=O)N[C@H](CC(N)=O)C(=O)N[C@@H](CC(=O)O)C(=O)N[C@@H]1C(=O)NCC(=O)N[C@@H](CCCN)C(=O)N[C@@H](CC(=O)O)C(=O)N[C@H](C)C(=O)N[C@@H](CC(=O)O)C(=O)NCC(=O)N[C@H](CO)C(=O)N[C@@H]([C@H](C)CC(=O)O)C(=O)N[C@@H](CC(=O)c2ccccc2N)C(=O)O[C@@H]1C [daptomycin],plasma AUC0-24h,"[1]; rats, AUC0-12 by linear trapezoidal rule multiplied by two",1667 µg·h/mL
same,mean peak plasma level,"[1]; uninfected rats, at 1 h, microbiological assay, mean of four animals",173 mg/L
same,TCF AUC0-24h as percentage of plasma AUC0-24h,[2]; 30 mg/kg daily regimen (printed as daptomycin no 1-study),35%
same,TCF AUC0-24h,[2]; 30 mg/kg once daily,196 µg·h/mL
same,TCF level at 12 h (intermediate value),[2]; 30 mg/kg once daily,10.0 mg/L
same,mean peak level in TCF,[2]; 30 mg/kg once daily,11.8 mg/L
same,mean trough level in TCF,[2]; 30 mg/kg once daily,3.4 mg/L
same,plasma AUC0-24h,[3]; 25 mg/kg,278 µg·h/mL
same,plasma AUC0-24h,[3]; 40 mg/kg,605 µg·h/mL
same,TCF AUC0-24h,"[4]; rats, 30 mg/kg i.p. twice daily, day 4, AUC0-12 by linear trapezoidal rule multiplied by two",1073 µg·h/mL
same,TCF AUC0-24h as percentage of plasma AUC0-24h,"[4]; rats, 30 mg/kg twice-daily regimen (printed as daptomycin no 2-study)",64%
same,mean peak level in TCF,"[4]; uninfected rats, 30 mg/kg i.p. twice daily, day 4, microbiological assay, mean of six animals",66 mg/L
same,exterior signs of toxicity,[5]; rats receiving twice-daily doses (30 mg/kg),No exterior sign of toxicity
same,liver toxicity (overall assessment),"[5]; rats treated with high-dose daptomycin (30 mg/kg twice daily, 7 days)",only mild liver toxicity
same,ALAT (alanine aminotransferase) activity in serum,"[5]; rats, 30 mg/kg i.p. twice daily for 7 days, serum at day 8, n = 5, control 41 ± 11",46 ± 9 IU/L
same,serum creatinine,"[5]; rats, 30 mg/kg i.p. twice daily for 7 days, serum at day 8, n = 5, control 50 ± 5",53 ± 5 μM/L
same,ASAT (aspartate aminotransferase) activity in serum,"[5]; rats, 30 mg/kg i.p. twice daily for 7 days, serum at day 8, n = 5, control 146 ± 36",216 ± 24 IU/L
same,creatine kinase in serum,"[5]; rats, 30 mg/kg i.p. twice daily for 7 days, serum at day 8, n = 5, control 1349 ± 820",1393 ± 886 IU/L
same,MBC,"[6]; methicillin-susceptible strain I20, 36 h",1 µg/mL
same,plasma AUC0-24h,[7],558 µg·h/mL
same,peak plasma level,"[7]; day 4, HPLC",141 mg/L
same,trough plasma level,"[7]; day 4, HPLC",0 mg/L
same,plasma level at 12 h,[7]; day 4,1000 ng/mL
same,level at 4 day,in vivo [8],21000 ng/mL
same,level at 12 h,in vivo [9],9100 ng/mL
CN[C@H](CC(C)C)C(=O)N[C@H]1C(=O)N[C@@H](CC(N)=O)C(=O)N[C@H]2C(=O)N[C@H]3C(=O)N[C@H](C(=O)N[C@H](C(=O)O)c4cc(O)cc(O)c4-c4cc3ccc4O)[C@H](O)c3ccc(c(Cl)c3)Oc3cc2cc(c3O[C@@H]2O[C@H](CO)[C@@H](O)[C@H](O)[C@H]2O[C@H]2C[C@](C)(N)[C@H](O)[C@H](C)O2)Oc2ccc(cc2Cl)[C@H]1O [vancomycin],peak TCF level,[2]; [13],12 mg/L
same,trough TCF level,[2]; [13],2 mg/L
same,time after which reduction in viable counts exceeded 3 log10 CFU/mL,MSSA strain I20 [10],4 h
same,MIC,[11],1 µg/mL
same,MBC,[6]; [14],2 µg/mL
same,average counts in tissue cages at the end of the 7-day therapy,MSSA strain I20 [12],5.49 ± 0.21 log10 CFU/mL
same,"reduction in bacterial counts in TCF (delta log10 CFU/mL, day 1 to day 8)",MSSA strain I20 [12],0.96 log10 CFU/mL and 0.96 ± 0.24 log10 CFU/mL
Cc1onc(-c2ccccc2)c1C(=O)N[C@@H]1C(=O)N2[C@@H]1SC(C)(C)[C@@H]2C(=O)O [oxacillin],trough TCF level,[2]; [13],5.7 mg/L
same,time after which reduction in viable counts exceeded 3 log10 CFU/mL,MSSA strain I20 [10],4 h
same,MIC,"[11]; CAMHB (20-25 mg/L Ca2+, 10-12.5 mg/L Mg2+), tube macrodilution, inoculum 10^6 CFU/mL, modal value of 3 determinations, read-out: MIC",0.5 µg/mL
same,MBC,[6]; [14],1 µg/mL
same,average counts in tissue cages at the end of the 7-day therapy,MSSA strain I20 [12],5.90 ± 0.25 log10 CFU/mL
same,"reduction in bacterial counts in TCF (delta log10 CFU/mL, day 1 to day 8)",MSSA strain I20 [12],0.92 log10 CFU/mL and 0.92 ± 0.21 log10 CFU/mL
